For assay [1], the target named is porcine pancreatic elastase (PPE) (Sus scrofa, UniProt P00772). Description: Specificity assay, porcine pancreatic elastase. In kind it is biochemical. The following applies: read-out: PPE activity in the specificity assays (IC50). The method, then: (§1) The specificities of compounds of the present disclosure were determined against a variety of serine proteases: human neutrophil elastase (HNE), porcine pancreatic elastase (PPE) and human pancreatic chymotrypsin and one cysteine protease: human liver cathepsin B. In all cases a 96-well plate format protocol using a fluorometric Amino-Methyl-Coumarin (AMC) substrate specific for each enzyme was used as described previously (PCT Patent Application No. WO 00/09543) with some modifications to the serine protease assays. All enzymes were purchased from Sigma, EMDbiosciences while the substrates were from Bachem, Sigma and EMDbiosciences.
Chain of porcine pancreatic elastase (PPE) (P00772 27-266): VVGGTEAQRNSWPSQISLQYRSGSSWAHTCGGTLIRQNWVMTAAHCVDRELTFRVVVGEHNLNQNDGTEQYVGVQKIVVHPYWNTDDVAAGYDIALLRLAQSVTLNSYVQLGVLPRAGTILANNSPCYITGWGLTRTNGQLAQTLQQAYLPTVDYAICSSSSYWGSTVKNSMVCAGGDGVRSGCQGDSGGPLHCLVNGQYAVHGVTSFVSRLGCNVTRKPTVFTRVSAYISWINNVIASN
(§2) Compound concentrations varied from 100 to 0.4 μM depending on their potency. The enzyme assays were each initiated by addition of substrate to enzyme-inhibitor pre-incubated for 10 min at room temperature and hydrolysis to 15% conversion as measured on cytofluor. […]
(§3) The percentage of inhibition was calculated using the formula: […]

The target in assay [2] is T1, human neutrophil elastase (HNE) (Homo sapiens, UniProt P08246).
T1 sequence (P08246 30-267): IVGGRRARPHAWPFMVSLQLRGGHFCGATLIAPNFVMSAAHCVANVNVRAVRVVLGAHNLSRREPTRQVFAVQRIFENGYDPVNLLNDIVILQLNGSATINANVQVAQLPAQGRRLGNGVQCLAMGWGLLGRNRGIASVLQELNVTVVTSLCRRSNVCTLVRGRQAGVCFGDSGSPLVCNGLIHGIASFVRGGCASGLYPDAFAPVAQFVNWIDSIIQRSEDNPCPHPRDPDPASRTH
Description: Specificity assay, human neutrophil elastase. In kind it is biochemical. The conditions noted are these: read-out: HLE activity in the specificity assays (IC50). How it is done:
as §1, §2, §3

Where only a bound is given, the exact number is not on record here.

One may read the IC50 as the concentration needed to halve the response being measured.

Regarding `C=C[C@@H]1C[C@]1(NC(=O)[C@@H]1C[C@@H](OC(=O)N2Cc3cccc(F)c3C2)CN1C(=O)C(Nc1cc(C)cc(C)n1)C(C)C)C(=O)NS(=O)(=O)C1CC1` (single isomer, unassigned) [Compound 2A], the values for the half-maximal inhibitory concentration (IC50) in assay [1] and in assay [2] were more than 100 µM and 4.6 µM, respectively.

(Values after patent US20090285774A1, “Hepatitis C Virus Inhibitors” (Bristol-Myers Squibb Company, priority 2008, published 2009).)
